In PMC11714206, “Massively Parallel Screening of Toll/Interleukin‐1 Receptor (TIR)‐Derived Peptides Reveals Multiple Toll‐Like Receptors (TLRs)‐Targeting Immunomodulatory Peptides” (Advanced Science, 2024):
Values belong to the sequence of their own block, whether it stands above or below them.

Biological target: T1, MyD88^TIR (Homo sapiens, UniProt Q99836)
T1 construct: MyD88 (residues 148–296); 6xHis; made in house; host or cells: E. coli BL21 (DE3)
Assay: T‐Surf phage library (P8 and P3) selection against MyD88^TIR, four rounds, NGS read counts
Assay type: binding
Settings: for P3_MyD88 Rank (after) / P3_MyD88 Rank (before): P3 library; for P8_MyD88 Rank (after) / P8_MyD88 Rank (before): P8 library; for Population: 4th round of selection against MyD88 TIR, share of NGS reads
How it was run: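 P8 and P3 T‐Surf libraries panned against plate-coated TIR domains (5 µg mL^−1), 1 h binding at RT, acid elution and TG1/helper-phage amplification per round. After four rounds, pools were PCR-barcoded and sequenced (NovaSeq, 100 bp paired-end, Phred ≥30); peptides ranked by read counts.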

[1] = P3_MyD88: rank by count after grouping
[2] = P3_MyD88: rank by count before grouping
[3] = 4R selection against MyD88, rank after grouping
[4] = 4R selection against MyD88, rank before grouping
[5] = P8_MyD88: rank by NGS read count after grouping
[6] = P8_MyD88: rank by NGS read count before grouping
[7] = P8_MyD88: rank by count after grouping
[8] = P8_MyD88: rank by count before grouping
[9] = P3_MyD88 pool: P3 T-Surf phage library
[10] = selection against MyD88 TIR, rank by count after grouping
[11] = selection against MyD88 TIR, rank by count before grouping
[12] = selection against MyD88, rank by count after grouping
[13] = selection against MyD88, rank by count before grouping
[14] = P8_MyD88 pool: P8 T-Surf phage library
[15] = selection against MyD88, rank after grouping
[16] = selection against MyD88, rank before grouping

T1 sequence (Q99836 148-296): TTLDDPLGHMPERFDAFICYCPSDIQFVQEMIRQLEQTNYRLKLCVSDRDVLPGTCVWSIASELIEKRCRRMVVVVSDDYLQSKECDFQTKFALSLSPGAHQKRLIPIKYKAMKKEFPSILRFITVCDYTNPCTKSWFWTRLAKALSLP

Sequence: SSLLEGRWALLELSKK
Rank (after) [1]: 459
Rank (before) [2]: 3253

Sequence: WFWDKLKYALHRNRI
Rank (after) [1]: 406
Rank (before) [2]: 1414

Sequence: RSSAFQQQLVMALKAQ
P3_MyD88 Rank (after) [3]: 643
P3_MyD88 Rank (before) [4]: 2616

Sequence: YLLLSVLHTRSARGYV
Rank (after) [5]: 925
Rank (before) [6]: 2010

Sequence: DPKDLQWFYERLVSLF
Rank (after) [5]: 1027
Rank (before) [6]: 3043

Sequence: DVLYYALIDAGIRVFR
Rank (after) [7]: 182
Rank (before) [8]: 216

Sequence: NQWRNALTAAANLSGC
Population [9]: 0.00291%

Sequence: PYLLWVFDDEDGQELF
P8_MyD88 Rank (after) [10]: 199
P8_MyD88 Rank (before) [11]: 291

Sequence: YTALANSGCHTFRDND
Rank (after) [1]: 397
Rank (before) [2]: 1635

Sequence: KMQKWNDALYEAAHLR
P3_MyD88 Rank (after) [3]: 636
P3_MyD88 Rank (before) [4]: 3714

Sequence: SSLREGLWPLLELSKK
Rank (after) [1]: 94
Rank (before) [2]: 1214

Sequence: YAFTGHLHRDLVQRGL
Rank (after) [1]: 427
Rank (before) [2]: 1521

Sequence: YPQELVLFYELLGSLV
P8_MyD88 Rank (after) [12]: 699
P8_MyD88 Rank (before) [13]: 2101

Sequence: WVLHKVLQILHAREIY
Rank (after) [5]: 976
Rank (before) [6]: 1390

Sequence: SSFREQLRPALKERLP
P3_MyD88 Rank (after) [10]: 215
P3_MyD88 Rank (before) [11]: 1210

Sequence: DPQDLEWFYERLVSRF
P8_MyD88 Rank (after) [10]: 266
P8_MyD88 Rank (before) [11]: 2851

Sequence: WALDELLQILHARRTE
P8_MyD88 Rank (after) [12]: 702
P8_MyD88 Rank (before) [13]: 1457

Sequence: DTKLKKGESIAPERLP
Rank (after) [1]: 116
Rank (before) [2]: 973

Sequence: DPQALDWFYERLVRLF
P8_MyD88 Rank (after) [10]: 279
P8_MyD88 Rank (before) [11]: 2689

Sequence: DPQDLDWFYERVVGLF
Rank (after) [5]: 914
Rank (before) [6]: 2759

Sequence: QWALEELRLIMELHSV
Rank (after) [7]: 158
Rank (before) [8]: 175
Population [14]: 0.00809%

Sequence: SDLRVVEDGSVSPLEM
Rank (after) [1]: 104
Rank (before) [2]: 1178

Sequence: RVAHEISTKMKIFATI
P3_MyD88 Rank (after) [15]: 559
P3_MyD88 Rank (before) [16]: 2682

Sequence: VANILGCHWIDWECFV
Rank (after) [7]: 464
Rank (before) [8]: 2165

Sequence: PHDLDWLYERPVRLIL
Rank (after) [5]: 980
Rank (before) [6]: 3412

Sequence: DPQDLEWFYERPVSLF
P8_MyD88 Rank (after) [10]: 259
P8_MyD88 Rank (before) [11]: 2853

Sequence: SSFREGLWRLLELTKK
Population [9]: 0.0032%

Sequence: LSRVPSGHVIPGFVAI
P3_MyD88 Rank (after) [15]: 529
P3_MyD88 Rank (before) [16]: 2378

Sequence: DVLYWALTEAGLRGFR
P8_MyD88 Rank (after) [15]: 578
P8_MyD88 Rank (before) [16]: 2557

Sequence: GTFIDYLYHRLMEEGI
Rank (after) [7]: 107
Rank (before) [8]: 113
Population [14]: 0.02%

Sequence: PQAPEWSYERLVSLIL
Rank (after) [5]: 954
Rank (before) [6]: 3417

Sequence: TSTWALDELLRILY
Rank (after) [5]: 912
Rank (before) [6]: 3824

Sequence: YALTGHKHRYMVQRGV
P3_MyD88 Rank (after) [10]: 193
P3_MyD88 Rank (before) [11]: 1554

Sequence: SSFRVGLWRLLELSKK
Population [9]: 0.00291%

Sequence: ALLKKLDSGFSEEKLL
P3_MyD88 Rank (after) [10]: 267
P3_MyD88 Rank (before) [11]: 1950

Results, then the sequence that gave them:

Rank (after) [1]: 156
Rank (before) [2]: 3107
Sequence: SRFREGLWPLLELSKK

P8_MyD88 Rank (after) [3]: 656
P8_MyD88 Rank (before) [4]: 1656
Sequence: WTLNELQTILNILDIG

Rank (after) [1]: 147
Rank (before) [2]: 651
Sequence: EWIREQLRPALKAQ

Rank (after) [1]: 133
Rank (before) [2]: 734
Sequence: SENYATSPWALKERLP

Rank (after) [7]: 447
Rank (before) [8]: 3414
Sequence: PQVLGWFYERLVSLIL

Population [9]: 0.0032%
Sequence: SSSREGLWRLLELSKK

P8_MyD88 Rank (after) [15]: 557
P8_MyD88 Rank (before) [16]: 3027
Sequence: DPQTLQSFYERLVSLI

Rank (after) [7]: 113
Rank (before) [8]: 121
Population [14]: 0.0181%
Sequence: QDLEQFYERLISRILQ

Rank (after) [1]: 170
Rank (before) [2]: 1156
Sequence: MNWCMCGAAKRIAWW

P3_MyD88 Rank (after) [12]: 706
P3_MyD88 Rank (before) [13]: 2609
Sequence: RISAFHQQLLMALKTQ

P3_MyD88 Rank (after) [3]: 646
P3_MyD88 Rank (before) [4]: 3408
Sequence: NELVHVWRSKANRLVG

P3_MyD88 Rank (after) [12]: 685
P3_MyD88 Rank (before) [13]: 2792
Sequence: HLLKEFDKKLIPRLK

P3_MyD88 Rank (after) [15]: 568
P3_MyD88 Rank (before) [16]: 1571
Sequence: YLKWGSPWFWDRLRFGPIGQ

Rank (after) [7]: 438
Rank (before) [8]: 2970
Sequence: DPQDQEWFYERLFSHV

Rank (after) [7]: 148
Rank (before) [8]: 159
Population [14]: 0.00925%
Sequence: DFLLTILEAMKTKNQL
